Laboratory results published in US10682323B2, “Therapeutic agent for glaucoma” (TOA EIYO LTD., priority 2016, dated 2020).

Test: Determination of Log D value (flask shaking method)
Type: physicochemical
Conditions: pH 6.8; partition between n-octanol and second solution for the disintegration test (16th revised Japanese Pharmacopoeia), room temperature
Description: More specifically, the Log D is more preferably 1.6 or more and 2.3 or less, still more preferably 1.8 or more and 2.2 or less, and particularly preferably 1.8 or more and 2.1 or less. Here, the Log D value in the present invention is a compound partition coefficient between n-octanol and a second solution of a disintegration test of the 16th revised Japanese Pharmacopoeia.
The Log D value was determined using a flask shaking method, where a test compound partition coefficient between n-octanol and the second solution for the disintegration test defined in the 16th revised Japanese Pharmacopoeia was calculated. Specifically, in a microtube containing 2 mg of the test compound, n-octanol (0.25 mL) and the second solution for the disintegration test (0.25 mL) were mixed. The tube was shaken in a multi shaker at room temperature for 60 minutes, and allowed to stand until the two phases were completely separated. In the microtube, 10 μL of an n-octanol phase was diluted with 190 μL of 85% methanol and mixed, thereby obtaining an organic phase test solution. 100 μL of the second solution phase for the disintegration test was diluted with 100 μL of 50% methanol, and mixed, thereby obtaining an aqueous phase test solution. The organic phase test solution and the aqueous phase test solution were filtered, respectively, and the concentration of the test compound in these test solutions were measured, using high performance liquid chromatography. Then, from the measured concentration and dilution rate, the Log D was calculated.
That is, the Log D of the present specification is represented by the following equation: Log D=Log10([concentration of test compound in organic phase test solution]/[concentration of test compound in aqueous phase test solution])+1 [Equation 1]
The second solution for the disintegration test herein refers to, as defined in the 16th revised Japanese Pharmacopoeia, a liquid obtained by adding to 250 mL of a 0.2 mol/L potassium dihydrogenphosphate reagent, 118 mL of a 0.2 mol/L sodium hydroxide reagent, and water for adjusting to 1000 mL volume.

Compound | logD
CC(C)(C)c1cc(CO[C@@H](CN(CCCCC(=O)O)Cc2ccc(C(=O)O)cc2)c2ccccc2)cc(C(C)(C)C)c1 [Comparative Compound 4, reference compound] | 2.78
O=C(O)CCCCN(CCc1ccccc1OCc1ccc(CCc2ccccc2)cc1)C1COc2cc(C(=O)O)ccc21 (stereo not shown) [Comparative Compound 2, reference compound] | 2.59
O=C(O)CCCCN(Cc1ccc(C(=O)O)cc1)C[C@H](OCc1ccc(CCc2ccc(Cl)cc2)cc1)c1ccccc1 [Compound No. 6, (−)-4-([N-(4-carboxybutyl)-N-[(2R)-2-[4-[2-(4-chlorophenyl)ethyl]benzyloxy]-2-phenylethyl]amino]methyl)benzoic acid] | 2.02
O=C(O)CCCCN(CCc1ccccc1OCc1ccc(CCc2ccccc2)cc1)Cc1ccc(C(=O)O)cc1 [Comparative Compound 1, reference compound] | 1.5
O=C(O)CCCCN(CCc1ccccc1OCc1cccc2c1CCCC2)[C@H]1CCCc2cc(C(=O)O)ccc21 [Compound No. 8, (+)-(5S)-5-[N-(4-carboxybutyl)-N-[2-[2-(5,6,7,8-tetrahydronaphthalene-1-ylmethoxy)phenyl]ethyl]amino]-5,6,7,8-tetrahydronaphthalene-2-carboxylic acid] | 1.87

Further lines, results first:

logD | Compound
1.32 | N#Cc1cccc([C@H](CN(CCCCC(=O)O)Cc2ccc(C(=O)O)cc2)OCc2ccc(Oc3ccccc3)cc2)c1 [Comparative Compound 3, reference compound]
2.04 | O=C(O)CCCCN(Cc1ccc(C(=O)O)cc1)C[C@H](OCc1ccc(CCc2ccccc2)cc1)c1ccccc1 [Compound No. 14, (−)-4-([N-(4-carboxybutyl)-N-[(2R)-2-[4-(2-phenylethyl)benzyloxy]-2-phenylethyl]amino]methyl)benzoic acid]
